Assay results published in patent US20170095565A1, “CHEMICALLY MODIFIED SMALL MOLECULES” (Nektar Therapeutics, priority 2003, published 2017).
≈ marks a conversion by molar mass, not a printed value. Read-outs that look alike come from different tables or passages of the source.

Experiments:
[1] = molecular target: Mu-opiate (Homo sapiens, UniProt P35372); settings: read-out: IC50, Mu-opiate binding activity
[2] = Solubility of tested compounds (Table 1)
[3] = In situ brain perfusion, blood-brain barrier uptake; settings: for Normalized Brain Uptake Rate (Mean ± SD): normalized to 5 μM dosing solution, 20 mL/min perfusion rate, 30 sec; for Reduction in brain uptake rate (BUR) compared to the parent compound (factor / times): vs parent drug
Protocol: As utilized for these experiments, the in situ brain perfusion technique employed the intact rat brain to (i) determine drug permeation across the BBB under normal physiological conditions, and (ii) to study transport mechanisms such as passive diffusion verses carrier mediated transport.
Perfusion was performed using the single time-point method. Briefly, the perfusion fluid (perfusate) containing the test compound(s) was infused into rats via the left external carotid artery at a constant rate by an infusion pump (20 mL/min). Perfusion flow rate was set to completely take over fluid flow to the brain at normal physiologic pressure (80-120 mm Hg). The duration of the perfusion was 30 seconds. Immediately following the perfusion, the brain vasculature was perfused for an additional 30 seconds with drug-free perfusate to remove residual drug. The pump was turned off and the brain was then immediately removed from the skull. Left-brain samples from each rat were first weighed and then homogenized using a Polytron homogenizer. Four (4) mL of 20% methanol was added to each rat brain for homogenization. After homogenization, the total volume of homogenate was measured and recorded.
A measured amount of the homogenate was diluted with organic solvent and subsequently centrifuged. The supernatant was removed, evaporated in a stream of nitrogen and reconstituted and analyzed by LC/MS/MS. Quantification of drug concentrations in brain homogenate was performed against calibration curves generated by spiking the drugs into blank (i.e. drug-free) brain homogenate. Analysis of the drug concentrations in brain homogenates was carried out in triplicate, and the values were used to calculate the brain uptake rate in pmole per gram of rat brain per second of perfusion.
All the data was normalized to a 5 μM dosing solution at 20 mL/min perfusion rate for 30 sec.

[4] = Oral bioavailability: plasma concentration after oral gavage; assay type: in vivo, Sprague Dawley rats; settings: rats
Protocol: Female Sprague Dawley® rats (150-200 g) were obtained from Harlan Labs. […] The animals were fasted overnight (day −1), but water was provided ad libitum.
On the morning of dosing (day 0), each rat was weighed and the cannulas flushed with heparin (1000 U/mL). With the aid of a feeding tube, the animals were then dosed orally (gavage) with aqueous formulations containing either the PEGylated or the free drug. The dose was determined on a mg/kg body weight basis. […] At specific time intervals (1, 2 and 4 hours), blood samples (approximately 1.0 mL) were removed through the cannula, placed in 1.5 mL centrifuge tubes containing 14 μL of heparin, mixed and centrifuged to separate the plasma. The plasma samples were frozen (<−70° C.) until assayed. The plasma samples were purified by a precipitation technique and the analyte extracted and assayed using a high performance liquid chromatography (LC) method with a mass selective detector (MSD). […] When appropriate, an internal standard was used in the analysis.

[5] = molecular target: μ-Opiate Receptors (Homo sapiens, UniProt P35372); experiment: biochemical; assay type: biochemical
Chain of μ-Opiate Receptors (P35372 whole entry): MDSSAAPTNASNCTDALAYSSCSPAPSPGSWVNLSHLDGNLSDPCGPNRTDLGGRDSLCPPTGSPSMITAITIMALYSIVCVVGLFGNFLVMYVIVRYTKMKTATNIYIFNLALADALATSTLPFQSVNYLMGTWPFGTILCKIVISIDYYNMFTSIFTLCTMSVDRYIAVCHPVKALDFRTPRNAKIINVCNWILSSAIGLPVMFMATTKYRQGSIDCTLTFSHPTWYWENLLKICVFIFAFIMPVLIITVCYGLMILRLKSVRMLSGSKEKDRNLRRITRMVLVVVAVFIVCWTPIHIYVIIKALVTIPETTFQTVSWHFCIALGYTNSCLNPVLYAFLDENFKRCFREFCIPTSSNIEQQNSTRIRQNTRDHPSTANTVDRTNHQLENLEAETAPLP
Source text: In the table above, for each compound, the bioactivity is provided as a measure of the relative bioactivity of each of the various PEG conjugates in comparison to parent drug. The EC50 is the concentration of agonist that provokes a response halfway between the baseline and maximum response in a standard dose-response curve.

[6] = PEGylated compounds normalized to 1 mg/kg dose

Chain of Mu-opiate (P35372 whole entry): as above

What does the source list for `C=CCN1CC[C@]23c4c5ccc(O)c4O[C@H]2[C@@H](OCCOCCOCCOCCOCCOCCOCCOCCOCCOC)CC[C@@]3(O)[C@H]1C5` (single isomer, unassigned) [α isomer of PEG9-Nal]?
IC50 ([1]; naloxone series of compounds): 64.4 nM; Solubility [2]: soluble

With `C=CCN1CC[C@]23c4c5ccc(O)c4O[C@H]2C(=O)CC[C@@]3(O)[C@H]1C5` [Naloxone, naloxone, reference compound] as the compound, how does the “Percentage of Active Remaining After Incubation with Liver Microsomes” value (0 min) read?
The value was 100.0%.

What about the “Percentage of Active Remaining After Incubation with Liver Microsomes” value (20 min) of the same compound?
The value was 47.1%.

And the “Percentage of Active Remaining After Incubation with Liver Microsomes” value (40 min)?
The value was 27.6%.

What about the “Percentage of Active Remaining After Incubation with Liver Microsomes” value (60 min) of the same compound?
Its value is 15.6%.

What about the “Normalized Brain Uptake Rate (Mean ± SD)” value [3] of the same compound?
The value was 15.64 ± 3.54 pmole/gm brain/sec.

Which results are given for `C=CCN1CC[C@]23c4c5ccc(O)c4O[C@H]2[C@H](OCCOCCOCCOCCOCCOC)CC[C@@]3(O)[C@H]1C5` [β-PEG5-Nal, α,β-6-CH3—(OCH2CH2)5—O-naloxol]?
IC50 ([1]; naloxone series of compounds): 43.3 nM; Mean Plasma Concentration ± SD, 1 hr [4, 6]: 69.34 ± 15.03 ng/mL; Mean Plasma Concentration ± SD, 2 hr [4, 6]: 36.92 ± 15.84 ng/mL; EC50 ([5]; μ-opiate receptors, in-vitro): 43.3 nM; Solubility [2]: soluble

With `C=CCN1CC[C@]23c4c5ccc(O)c4O[C@H]2[C@H](OCCOCCOCCOCCOCCOCCOCCOC)CC[C@@]3(O)[C@H]1C5` [β-PEG7-Nal, α,β-6-CH3—(OCH2CH2)7—O-naloxol] as the compound, how does the “Normalized Brain Uptake Rate (Mean ± SD)” value [3] read?
Its value is 0.70 ± 0.19 pmole/gm brain/sec.

What about the “Mean Plasma Concentration ± SD, 1 hr” value [4, 6] of the same compound?
Its value is 50.41 ± 36.44 ng/mL.

What about the “Mean Plasma Concentration ± SD, 2 hr” value [4, 6] of the same compound?
The value was 50.08 ± 25.28 ng/mL.

And the Solubility [2]?
Its Solubility is “soluble”.

With `CC1=C(/C=C/C(C)=C/C=C/C(C)=C\C(=O)O)C(C)(C)CCC1` [13-cis-Retinoic Acid, 13-cis-retinoic acid, reference compound] as the compound, how does the “Normalized Brain Uptake Rate (Mean ± SD)” value [3] read?
Its value is 102.54 ± 37.31 pmole/gm brain/sec.

And the “Mean Plasma Concentration ± SD, 1 hr” value ([4]; normalized to a 6 mg/kg dose)?
Its value is 43.3 ± 24.0 ng/mL.

And the “Mean Plasma Concentration ± SD, 2 hr” value ([4]; normalized to a 6 mg/kg dose)?
Its value is 23.3 ± 14.8 ng/mL.

What about the Solubility [2] of the same compound?
Its Solubility is 0.47 µM (≈ 0.141 µg/mL).

Which “Reduction in brain uptake rate (BUR) compared to the parent compound (factor / times)” value (“Reduction … (factor / times)” for short) [3] does the source give for `C=CCN1CC[C@]23c4c5ccc(O)c4O[C@H]2[C@H](OCCOCCOCCOCCOCCOCCOCCOC)CC[C@@]3(O)[C@H]1C5` [PEG7-Nal, α,β-6-CH3—(OCH2CH2)7—O-naloxol] here?
Its value is 16.

With `COCCOCCOCCOCCOCCOCCOCCNC(=O)\C=C(C)/C=C/C=C(C)/C=C/C1=C(C)CCCC1(C)C` [PEG7-13-cis-RA, CH3—(OCH2CH2)7—NH-13-cis-Retinamide] as the compound, how does the “Normalized Brain Uptake Rate (Mean ± SD)” value [3] read?
Its value is 24.15 ± 1.49 pmole/gm brain/sec.

What about the “Reduction … (factor / times)” value [3] of the same compound?
Its value is “four”.

And the “Mean Plasma Concentration ± SD, 1 hr” value ([4]; normalized to a 6 mg/kg dose)?
Its value is 44.0 ± 13.0 ng/mL.

What about the “Mean Plasma Concentration ± SD, 2 hr” value ([4]; normalized to a 6 mg/kg dose) of the same compound?
The value was 38.7 ± 4.2 ng/mL.

And the Solubility [2]?
Its Solubility is 58.3 µM (≈ 36.3 µg/mL).

Which EC50 ([5]; μ-opiate receptors, in-vitro) does the source give for `C=CCN1CCC23c4c5ccc(O)c4OC2C(O)CCC3(O)C1C5` (single isomer, unassigned) [β-6-naloxol, reference compound] here?
The EC50 was 10.8 nM.

What does the source list for `COCCOCCOCCOCCOCCNC(=O)\C=C(C)/C=C/C=C(C)/C=C/C1=C(C)CCCC1(C)C` [PEG5-13-cis-RA, CH3—(OCH2CH2)5—NH-13-cis-retinamide]?
Normalized Brain Uptake Rate (Mean ± SD) [3]: 58.49 ± 13.44 pmole/gm brain/sec; Mean Plasma Concentration ± SD, 1 hr ([4]; normalized to a 6 mg/kg dose): 77.7 ± 31.6 ng/mL; Mean Plasma Concentration ± SD, 2 hr ([4]; normalized to a 6 mg/kg dose): 61.6 ± 57.1 ng/mL; Solubility [2]: soluble

With `C=CCN1CC[C@]23c4c5ccc(O)c4O[C@H]2C(OCCOCCOCCOC)CC[C@@]3(O)[C@H]1C5` (some centres unmarked) [PEG3-Nal, 6-CH3—(OCH2CH2)3-Naloxol] as the compound, how does the “Normalized Brain Uptake Rate (Mean ± SD)” value [3] read?
Its value is 4.67 ± 3.57 pmole/gm brain/sec.

Which “Normalized Brain Uptake Rate (Mean ± SD)” value [3] does the source give for `COCCOCCOCCNC(=O)\C=C(C)/C=C/C=C(C)/C=C/C1=C(C)CCCC1(C)C` [PEG3-13-cis-RA, CH3(OCH2CH2)3—NH-13-cis-Retinamide] here?
The value was 79.65 ± 20.91 pmole/gm brain/sec.

And the “Mean Plasma Concentration ± SD, 1 hr” value ([4]; normalized to a 6 mg/kg dose)?
Its value is 131.8 ± 55.0 ng/mL.

What about the “Mean Plasma Concentration ± SD, 2 hr” value ([4]; normalized to a 6 mg/kg dose) of the same compound?
Its value is 158.0 ± 133.0 ng/mL.

What about the Solubility [2] of the same compound?
Its Solubility is 3.13 µM (≈ 1.39 µg/mL).

With `COCCOCCOCCOCCOCCOCCOCCOCCOCCOCCOCCNC(=O)\C=C(C)/C=C/C=C(C)/C=C/C1=C(C)CCCC1(C)C` [PEG11-13-cis-RA, CH3—(OCH2CH2)11—NH-13-cis-Retinamide] as the compound, how does the “Normalized Brain Uptake Rate (Mean ± SD)” value [3] read?
Its value is 17.77 ± 1.68 pmole/gm brain/sec.

And the “Reduction … (factor / times)” value [3]?
Its value is “five”.

And the “Mean Plasma Concentration ± SD, 1 hr” value ([4]; normalized to a 6 mg/kg dose)?
Its value is 21.8 ± 7.1 ng/mL.

And the “Mean Plasma Concentration ± SD, 2 hr” value ([4]; normalized to a 6 mg/kg dose)?
The value was 58.2 ± 43.5 ng/mL.

And the Solubility [2]?
Its Solubility is “soluble”.

With `C=CCN1CC[C@]23c4c5ccc(O)c4O[C@H]2[C@H](OCCOCCOCCOCCOCCOC)CC[C@@]3(O)[C@H]1C5` [PEG5-Nal, α,β-6-CH3—(OCH2CH2)5—O-naloxol] as the compound, how does the “Normalized Brain Uptake Rate (Mean ± SD)” value [3] read?
Its value is 0.96 ± 0.36 pmole/gm brain/sec.

And the “Reduction … (factor / times)” value [3]?
Its value is 16.

Which EC50 ([5]; μ-opiate receptors, in-vitro) does the source give for `C=CCN1CCC23c4c5ccc(O)c4OC2C(O)CCC3(O)C1C5` (single isomer, unassigned) [α-6-naloxol, reference compound] here?
Its EC50 is 2 nM.

Which “Percentage of Active Remaining After Incubation with Liver Microsomes” value (0 min) does the source give for `C=CCN1CC[C@]23c4c5ccc(O)c4O[C@H]2[C@@H](OCCOCCOCCOC)CC[C@@]3(O)[C@H]1C5` [α-PEG3-Nal, α-6-CH3—(OCH2CH2)3—O-naloxol] here?
Its value is 100.0%.

And the “Percentage of Active Remaining After Incubation with Liver Microsomes” value (20 min)?
Its value is 64.8%.

And the “Percentage of Active Remaining After Incubation with Liver Microsomes” value (40 min)?
The value was 51.7%.

What about the “Percentage of Active Remaining After Incubation with Liver Microsomes” value (60 min) of the same compound?
The value was 45.7%.

What about the IC50 [1] of the same compound?
Its IC50 is 7.3 nM.

What about the “Mean Plasma Concentration ± SD, 1 hr” value [4, 6] of the same compound?
The value was 37.28 ± 4.99 ng/mL.

And the “Mean Plasma Concentration ± SD, 2 hr” value [4, 6]?
Its value is 14.92 ± 5.27 ng/mL.

And the “Bioactivity relative to the parent compound” value ([5]; from EC50 values)?
The value was “about 30%”.

And the EC50 ([5]; μ-opiate receptors, in-vitro)?
Its EC50 is 7.3 nM.

What about the Solubility [2] of the same compound?
The Solubility was “soluble”.

Which results are given for `C=CCN1CC[C@]23c4c5ccc(O)c4O[C@H]2[C@H](OCCOCCOCCOCCOCCOCCOCCOC)CC[C@@]3(O)[C@H]1C5` [α-PEG7-Nal, α,β-6-CH3—(OCH2CH2)7—O-naloxol]?
Percentage of Active Remaining After Incubation with Liver Microsomes (rat, microsomes, 0 h): 100.0%; Percentage of Active Remaining After Incubation with Liver Microsomes (rat, microsomes, 20 min): 87.4%; Percentage of Active Remaining After Incubation with Liver Microsomes (rat, microsomes, 40 min): 81.6%; Percentage of Active Remaining After Incubation with Liver Microsomes (rat, microsomes, 1 h): 76.9%; Normalized Brain Uptake Rate (Mean ± SD) ([3]; listed as PEG7-Nal (α isomer)): 0.94 ± 0.32 pmole/gm brain/sec; Mean Plasma Concentration ± SD, 1 hr [4, 6]: 40.08 ± 16.61 ng/mL; Mean Plasma Concentration ± SD, 2 hr [4, 6]: 39.51 ± 9.57 ng/mL; Solubility [2]: soluble

With `C=CCN1CC[C@]23c4c5ccc(O)c4O[C@H]2[C@H](OCCOCCOCCOCCOCCOC)CC[C@@]3(O)[C@H]1C5` [α-PEG5-Nal, α,β-6-CH3—(OCH2CH2)5—O-naloxol] as the compound, how does the “Percentage of Active Remaining After Incubation with Liver Microsomes” value (rat, microsomes, 0 h) read?
Its value is 100.0%.

What about the “Percentage of Active Remaining After Incubation with Liver Microsomes” value (rat, microsomes, 20 min) of the same compound?
The value was 84.1%.

What about the “Percentage of Active Remaining After Incubation with Liver Microsomes” value (rat, microsomes, 40 min) of the same compound?
The value was 75.6%.

And the “Percentage of Active Remaining After Incubation with Liver Microsomes” value (rat, microsomes, 1 h)?
Its value is 69.2%.

And the IC50 [1]?
The IC50 was 31.5 nM.

What about the “Mean Plasma Concentration ± SD, 1 hr” value [4, 6] of the same compound?
The value was 27.37 ± 10.82 ng/mL.

And the “Mean Plasma Concentration ± SD, 2 hr” value [4, 6]?
Its value is 15.38 ± 6.65 ng/mL.

What about the EC50 [5] of the same compound?
The EC50 was 31.5 nM.

And the Solubility [2]?
The Solubility was “soluble”.
